According to patent publication US9388199B2, “Pyrrolidine derivatives and their use as complement pathway modulators” (priority 2012, dated 2016):

Molecular target: Recombinant human factor D (Homo sapiens (Human), UniProt P00746)
Assay: Human Complement Factor D Assay: Method 1
Format: biochemical
Details: 10 nM factor D, substrate Z-Lys-thiobenzyl, fluorescence readout, read-out: IC50 (μM), Factor D inhibition
Method: Human Complement Factor D Assay: Method 1
Recombinant human factor D (expressed in E. coli and purified using standard methods) at 10 nM concentration is incubated with test compound at various concentrations for 1 hour at room temperature in 0.1 M Hepes buffer, pH 7.5, containing 1 mM MgCl2, 1 M NaCl and 0.05% CHAPS. A synthetic substrate Z-Lys-thiobenzyl and 2,4-dinitrobenzenesulfonyl-fluoresceine are added to final concentrations of 200 μM and 25 μM, respectively. The increase in fluorescence is recorded at excitation of 485 nm and emission at 535 nm in a microplate spectrofluorimeter. IC50 values are calculated from percentage of inhibition of complement factor D-activity as a function of test compound concentration.

Chain of Recombinant human factor D (P00746 26-253): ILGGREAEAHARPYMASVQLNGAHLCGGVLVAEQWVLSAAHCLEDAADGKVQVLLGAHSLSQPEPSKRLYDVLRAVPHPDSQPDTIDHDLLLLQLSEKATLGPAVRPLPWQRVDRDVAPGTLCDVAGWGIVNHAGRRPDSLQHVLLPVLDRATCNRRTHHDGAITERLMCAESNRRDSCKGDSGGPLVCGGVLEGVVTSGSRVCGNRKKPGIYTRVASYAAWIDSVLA

Structure (SMILES)	IC50
COC[C@H](CC(C)(C)C)NC(=O)[C@@H]1C[C@H]2C[C@H]2N1C(=O)Cn1nc(C(N)=O)c2ccccc21 [Example 37, 1-{2-[(1R,3S,5R)-3-((S)-1-Methoxymethyl-3,3-dimethyl-butylcarbamoyl)-2-aza-bicyclo[3.1.0]hex-2-yl]-2-oxo-ethyl}-1H-indazole-3-carboxylic acid amide]	0.443 µM
NC(=O)c1nn(CC(=O)N2[C@@H]3C[C@@H]3C[C@H]2C(=O)NCC(F)F)c2ccccc12 [Example 32, 1-{2-[(1R,3S,5R)-3-(2,2-Difluoro-ethylcarbamoyl)-2-aza-bicyclo[3.1.0]hex-2-yl]-2-oxo-ethyl}-1H-indazole-3-carboxylic acid amide]	0.874 µM
CC(=O)c1nn(CC(=O)N2[C@@H]3C[C@@H]3C[C@H]2C(=O)NCCC(C)(C)C)c2cnccc12 [Example 7, (1R,3S,5R)-2-[2-(3-Acetyl-pyrazolo[3,4-c]pyridin-1-yl)-acetyl]-2-aza-bicyclo[3.1.0] hexane-3-carboxylic acid (3,3-dimethyl-butyl)-amide]	0.068 µM
CC(=O)c1nn(CC(=O)N2[C@@H]3C[C@@H]3C[C@H]2C(=O)NCC[Si](C)(C)C)c2cnccc12 [Example 43, (1R,3S,5R)-2-[2-(3-Acetyl-pyrazolo[3,4-c]pyridin-1-yl)-acetyl]-2-aza-bicyclo[3.1.0]hexane-3-carboxylic acid (2-trimethylsilanyl-ethyl)-amide]	0.323 µM
NC(=O)n1cc(NC(=O)N2[C@@H]3C[C@@H]3C[C@H]2C(=O)NCCOC(F)(F)C(F)(F)F)c2ccccc21 [Example 27, (1R,3S,5R)-2-Aza-bicyclo [3.1.0]hexane-2,3-di arboxylic acid 2-[(1-carbamoyl-1H-indol-3-yl)-amide] 3-[(2-pentafluoroethyloxy-ethyl)-amide]]	1.97 µM
CC(=O)c1nn(CC(=O)N2[C@@H]3C[C@@H]3C[C@H]2C(=O)NCCC(F)(F)F)c2cnccc12 [Example 39, (1R,3S,5R)-2-[2-(3-Acetyl-pyrazolo[3,4-c]pyridin-1-yl)-acetyl]-2-aza-bicyclo [3.1.0]hexane-3-carboxylic acid (3,3,3-trifluoro-propyl)-amide]	5.32 µM
CC(C)(C)CCNC(=O)[C@@H]1C[C@H]2C[C@H]2N1C(=O)Cn1nc(C(N)=O)c2ccccc21 [Example 1, 1-{2-[(1R,3S,5R)-3-(3,3-Dimethyl-butylcarbamoyl)-2-aza-bicyclo[3.1.0]hex-2-yl]-2-oxo-ethyl}-1H-indazole-3-carboxylic acid amide]	0.061 µM
NC(=O)c1nn(CC(=O)N2[C@@H]3C[C@@H]3C[C@H]2C(=O)NCCF)c2ccccc12 [Example 41, 1-{2-[(1R,3S,5R)-3-(2-Fluoro-ethylcarbamoyl)-2-aza-bicyclo[3.1.0]hex-2-yl]-2-oxo-ethyl}-1H-indazole-3-carboxylic acid amide]	1.35 µM
CC(=O)c1nn(CC(=O)N2[C@@H]3C[C@@H]3C[C@H]2C(=O)NCCCOC(F)(F)F)c2ccc(OCc3ncccn3)cc12 [Example 14, (1R,3S,5R)-2-{2-[3-Acetyl-5-(pyrimidin-2-ylmethoxy)-indazol-1-yl]-acetyl}-2-aza-bicyclo[3.1.0]hexane-3-carboxylic acid (3-trifluoro methoxy-propyl)-amide]	0.127 µM
CC(=O)c1nn(CC(=O)N2[C@@H]3C[C@@H]3C[C@H]2C(=O)NCCOC(F)(F)F)c2ccc(OCc3ncccn3)cc12 [Example 15, (1R,3S,5R)-2-{2-[3-Acetyl-5-(pyrimidin-2-ylmethoxy)-indazol-1-yl]-acetyl}-2-aza-bicyclo[3.1.0]hexane-3-carboxylic acid (2-trifluoro methoxy-ethyl)-amide]	0.021 µM
NC(=O)n1cc(NC(=O)N2[C@@H]3C[C@@H]3C[C@H]2C(=O)NCCOC(F)(F)F)c2ccccc21 [Example 23, (1R,3S,5R)-2-Aza-bicyclo [3.1.0]hexane-2,3-dicarboxylic acid 2-[(1-carbamoyl-1H-indol-3-yl)-amide] 3-[(2-trifluoromethoxy-ethyl)-amide]]	0.427 µM
